In patent US9273014B2, “Bis(fluoroalkyl)-1,4-benzodiazepinone compounds and prodrugs thereof” (Bristol-Myers Squibb Company, priority 2012, dated 2016):

Experiments:
[1] = molecular target: human Notch 3 (Homo sapiens, UniProt Q9UM47); test: Notch-CBF1 Transactivation Assay (Notch 3); type: cell-based; conditions: HeLa cells co-transfected with truncated Notch 3 and CBF1 luciferase reporter; 18 hours incubation
Text: Notch-CBF1 Transactivation Assay
The Notch-CBF1 (C-promoter binding factor I) cell based transactivation assay is based on the ability of the released Notch intracellular domain fragments (NICDs) to function as transcription factors in conjunction with CBF1 and other nuclear factors. Luciferase assays were used to measure the antagonism of Notch-CBF1 transcriptional activity. HeLa cervical cancer cells are transiently co-transfected with pCDNA3.1/Hygro plasmids containing truncated Notch 1, Notch 2, Notch 3, or Notch 4 receptors and a PGL3 luciferase reporter vector containing 4 copies of CBF1 binding site. The cells were then tested for Notch-CBF1 activity in the absence or presence of test compounds. HeLa cells, maintained in DMEM (high glucose with HEPES), 1× glutamine/penicillin/streptomycin and 10% Fetal Bovine serum, were transiently transfected in a T175 Flask (4.5×10^6 cells/flask) using the Monster Transfection Kit (Minis #MIR2906) according to manufacturers specifications. Table 9 denotes respective DNA quantity for the transfections.
Assay media (5 μL) containing test compounds in final concentrations ranging from 5 μM to 8.4×10^−5 μM (3 fold serial dilutions) were added to the cells and the cell plates were then incubated for 18 hours at 37° C. and 5% CO2. Control wells contained DMSO vehicle (total counts) or 0.5 μM of an in-house small molecule inhibitor (background counts). Duplicates were used for each sample. Luciferase activity was measured after a 20-minute incubation with 50 μl STEADY-GLO® luciferase reagents according to manufacturer's specifications (Promega, Cat. #E2550) and analyzed by Envision plate reader (PerkinElmer, Boston, Mass.).
The antagonist effect of compounds was expressed as 100×[1−(average sample-average background)/(average total−average background)] where sample is the luciferase activity in the presence of test compound, background is equal to the luciferase activity in the presence of the small molecule inhibitor control and the total is signal induced in DMSO wells.

[2] = system: TALL1 Human T-cell acute lymphoblastic leukemia; test: Human tumor xenograft model in mice, TALL1; type: in vivo; conditions: oral administration, 10 mg/kg, QDx10; LCK = Log Cell Kill
Procedure: Human Tumor Xenograft Models in Mice
Mice were fed food and water ad libitum.
Tumor growth inhibition is calculated as follows: […]
When death occurred, the day of death was recorded.

[3] = system: human tumor xenografts; test: Human tumor xenograft models in mice (general statement); type: in vivo; conditions: orally administered (PO)
Procedure: Mice were fed food and water ad libitum. […] [table] […] When death occurred, the day of death was recorded.

[4] = in vitro; conditions: human, microsomes, pH 7.4
[5] = human metabolic stability half-life assay; conditions: microsomes, pH 7.4
[6] = Prodrug evaluation: single-dose pharmacokinetics in rats; conditions: rat, oral gavage, dose 3.00 mg/kg
Procedure: Male SPRAGUE DAWLEY® rats (250-300 g) were used for the pharmacokinetic studies. Rats were fasted overnight prior to dosing and fed 4 hrs post dose. In each study, groups of animals (N=2-3) received the test compound by oral gavage. Blood samples (˜0.3 mL) were collected from the jugular vein into K2EDTA-containing tubes at 0.5, 1, 3, 5, 7, and 24 h post dose. Plasma samples, obtained by centrifugation at 4° C. (1500-2000× g), were stored at −20° C. until analysis by LC/MS/MS.
The pharmacokinetic parameters were obtained by non-compartmental analysis of plasma concentration (determined by LC/MS/MS) vs. time data (ThermoKinetica Software version 5.0). The peak concentration (Cmax) and time for Cmax, Tmax, were recorded directly from experimental observations. The area under the curve from time zero to the last sampling time (AUC0-t) was calculated using a combination of linear and log trapezoidal summations. The total plasma clearance (CLTp), steady-state volume of distribution (Vss), apparent elimination half-life (t1/2) and mean residence time (MRT) were estimated after IV administration. […] The absolute oral bioavailability F was estimated as the ratio of dose-normalized AUC values following oral and IV doses.

Sequence of human Notch 3 (Q9UM47 40-2321 limits assumed): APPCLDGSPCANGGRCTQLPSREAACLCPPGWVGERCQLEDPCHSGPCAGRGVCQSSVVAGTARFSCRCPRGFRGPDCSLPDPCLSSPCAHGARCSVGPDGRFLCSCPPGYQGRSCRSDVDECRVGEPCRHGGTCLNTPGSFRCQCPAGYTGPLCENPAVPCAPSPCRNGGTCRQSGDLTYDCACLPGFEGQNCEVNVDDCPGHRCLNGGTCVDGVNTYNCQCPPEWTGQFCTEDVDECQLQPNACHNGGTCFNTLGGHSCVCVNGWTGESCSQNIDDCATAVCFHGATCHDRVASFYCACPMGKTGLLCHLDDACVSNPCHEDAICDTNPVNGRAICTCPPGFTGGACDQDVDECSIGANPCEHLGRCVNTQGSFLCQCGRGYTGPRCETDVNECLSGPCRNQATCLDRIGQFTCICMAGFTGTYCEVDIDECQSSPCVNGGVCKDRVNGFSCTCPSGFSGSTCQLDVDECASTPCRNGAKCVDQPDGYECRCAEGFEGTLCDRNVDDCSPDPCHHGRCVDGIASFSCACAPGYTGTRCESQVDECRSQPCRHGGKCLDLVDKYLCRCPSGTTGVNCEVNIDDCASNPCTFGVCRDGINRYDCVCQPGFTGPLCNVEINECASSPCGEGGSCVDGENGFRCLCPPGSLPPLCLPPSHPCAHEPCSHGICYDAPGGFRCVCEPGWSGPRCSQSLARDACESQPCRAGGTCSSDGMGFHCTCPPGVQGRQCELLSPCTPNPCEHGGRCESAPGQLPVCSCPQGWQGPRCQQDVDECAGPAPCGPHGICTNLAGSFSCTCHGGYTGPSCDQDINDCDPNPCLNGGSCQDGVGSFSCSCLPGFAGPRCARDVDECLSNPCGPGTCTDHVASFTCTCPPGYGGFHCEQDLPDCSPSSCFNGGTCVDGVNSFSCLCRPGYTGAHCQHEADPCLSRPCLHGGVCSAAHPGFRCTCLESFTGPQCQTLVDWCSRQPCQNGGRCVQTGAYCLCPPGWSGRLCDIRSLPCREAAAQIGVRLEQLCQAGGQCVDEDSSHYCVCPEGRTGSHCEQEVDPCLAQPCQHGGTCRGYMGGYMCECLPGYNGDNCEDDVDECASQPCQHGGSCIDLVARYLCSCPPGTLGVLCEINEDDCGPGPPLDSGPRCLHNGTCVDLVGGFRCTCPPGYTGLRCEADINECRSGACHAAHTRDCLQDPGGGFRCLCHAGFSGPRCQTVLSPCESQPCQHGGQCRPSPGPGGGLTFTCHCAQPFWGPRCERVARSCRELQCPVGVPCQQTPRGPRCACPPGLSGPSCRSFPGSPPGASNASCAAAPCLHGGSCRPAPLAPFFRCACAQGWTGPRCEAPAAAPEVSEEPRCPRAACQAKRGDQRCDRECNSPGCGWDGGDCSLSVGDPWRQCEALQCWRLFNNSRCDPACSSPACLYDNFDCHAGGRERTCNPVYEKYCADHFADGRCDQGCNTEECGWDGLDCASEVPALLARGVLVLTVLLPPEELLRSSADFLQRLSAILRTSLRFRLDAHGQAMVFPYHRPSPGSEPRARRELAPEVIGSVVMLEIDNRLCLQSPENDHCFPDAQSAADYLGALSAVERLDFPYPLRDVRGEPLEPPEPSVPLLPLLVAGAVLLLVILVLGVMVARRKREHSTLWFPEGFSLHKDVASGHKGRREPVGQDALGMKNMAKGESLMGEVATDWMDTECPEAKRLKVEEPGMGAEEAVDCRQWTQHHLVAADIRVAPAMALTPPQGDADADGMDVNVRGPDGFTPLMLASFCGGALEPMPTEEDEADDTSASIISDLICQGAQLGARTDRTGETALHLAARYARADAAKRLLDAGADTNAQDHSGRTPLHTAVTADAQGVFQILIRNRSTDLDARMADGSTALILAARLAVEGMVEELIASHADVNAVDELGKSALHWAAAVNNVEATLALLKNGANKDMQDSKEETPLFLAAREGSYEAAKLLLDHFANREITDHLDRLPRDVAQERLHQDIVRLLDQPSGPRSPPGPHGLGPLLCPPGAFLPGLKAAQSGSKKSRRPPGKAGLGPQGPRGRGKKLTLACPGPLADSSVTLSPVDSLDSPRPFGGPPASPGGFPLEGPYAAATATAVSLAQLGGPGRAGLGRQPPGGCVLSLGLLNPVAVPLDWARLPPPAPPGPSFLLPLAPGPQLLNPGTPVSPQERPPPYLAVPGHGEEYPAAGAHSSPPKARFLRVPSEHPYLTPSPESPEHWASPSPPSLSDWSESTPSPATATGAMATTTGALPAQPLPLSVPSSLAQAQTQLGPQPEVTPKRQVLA

CC(C)c1cccc2c1NC(=O)[C@@H](NC(=O)[C@H](CCC(F)(F)F)[C@H](CCC(F)(F)F)C(N)=O)N=C2c1cccc(Cl)c1 [Example 3, (2R,3S)—N-((3S)-5-(3-Chlorophenyl)-9-isopropyl-2-oxo-2,3-dihydro-1H-1,4-benzodiazepin-3-yl)-2,3-bis(3,3,3-trifluoropropyl)succinamide]
IC50 [1]: 1.9 nM | Antitumor Activity TALL1 (LCK) [2]: 4.0 | antitumor activity in human tumor xenografts implanted in mice [3]: showed antitumor activity | half-life [4]: 73 min

COc1cccc2c1NC(=O)[C@@H](NC(=O)[C@H](CCC(F)(F)F)[C@H](CCC(F)(F)F)C(N)=O)N=C2c1ccc(Cl)cc1 [Example 27, (2R,3S)—N-((3S)-5-(4-Chlorophenyl)-9-methoxy-2-oxo-2,3-dihydro-1H-1,4-benzodiazepin-3-yl)-2,3-bis(3,3,3-trifluoropropyl)succinamide]
half-life at 0.5 µM [5]: 115 min

Cc1cccc2c1NC(=O)[C@@H](NC(=O)[C@H](CCC(F)(F)F)[C@H](CCC(F)(F)F)C(N)=O)N=C2c1cccc(C(F)(F)F)c1 [Example 20, (2R,3S)—N-((3S)-9-Methyl-2-oxo-5-(3-(trifluoromethyl)phenyl)-2,3-dihydro-1H-1,4-benzodiazepin-3-yl)-2,3-bis(3,3,3-trifluoropropyl)succinamide]
IC50 [1]: 1.4 nM | half-life [4]: > 120 min

Cc1ccccc1C1=N[C@H](NC(=O)[C@H](CCC(F)(F)F)[C@H](CCC(F)(F)F)C(N)=O)C(=O)Nc2ccccc21 [Example 31, (2R,3S)—N-((3S)-5-(2-Methylphenyl)-2-oxo-2,3-dihydro-1H-1,4-benzodiazepin-3-yl)-2,3-bis(3,3,3-trifluoropropyl)succinamide]
IC50 [1]: 4.6 nM | half-life [4]: 100 min

Cc1ccc(C2=N[C@H](NC(=O)[C@H](CCC(F)(F)F)[C@H](CCCC(F)(F)F)C(N)=O)C(=O)Nc3c(Cl)cccc32)cc1C [Example 4, (2R,3S)—N-(9-Chloro-5-(3,4-dimethylphenyl)-2-oxo-2,3-dihydro-1H-1,4-benzodiazepin-3-yl)-3-(4,4,4-trifluorobutyl)-2-(3,3,3-trifluoropropyl)succinamide]
IC50 [1]: 7.3 nM | half-life [4]: 31 min

Cc1cc(C)cc(C2=N[C@H](NC(=O)[C@H](CCC(F)(F)F)[C@H](CCC(F)(F)F)C(N)=O)C(=O)Nc3c(Cl)cccc32)c1 [Example 10, (2R,3S)—N-((3S)-9-Chloro-5-(3,5-dimethylphenyl)-2-oxo-2,3-dihydro-1H-1,4-benzodiazepin-3-yl)-2,3-bis(3,3,3-trifluoropropyl)succinamide]
IC50 [1]: 5.4 nM | half-life [4]: 54 min

NC(=O)[C@@H](CCC(F)(F)F)[C@@H](CCC(F)(F)F)C(=O)N[C@H]1N=C(c2ccccc2)c2cccc(C3CC3)c2NC1=O [Example 24, (2R,3S)—N-((3S)-9-Cyclopropyl-2-oxo-5-phenyl-2,3-dihydro-1H-1,4-benzodiazepin-3-yl)-2,3-bis(3,3,3-trifluoropropyl)succinamide]
IC50 [1]: 2.1 nM | half-life [4]: 62 min

Cc1cccc2c1N(COC(=O)Cc1ccc(OP(=O)(O)O)cc1)C(=O)[C@@H](NC(=O)[C@H](CCC(F)(F)F)[C@H](CCC(F)(F)F)C(N)=O)N=C2c1cccc(F)c1 [Example 43, ((3S)-3-(((2R,3S)-3-Carbamoyl-6,6,6-trifluoro-2-(3,3,3-trifluoropropyl)hexanoyl)amino)-5-(3-fluorophenyl)-9-methyl-2-oxo-2,3-dihydro-1H-1,4-benzodiazepin-1-yl)methyl(4-(phosphonooxy)phenyl)acetate]
% Relative Bioavailability to Example 1 [6]: 35% | AUC0-24 h of Example 1 after Administration of Prodrug [6]: 193 nM·h

NC(=O)[C@@H](CCCC(F)(F)F)[C@@H](CCC(F)(F)F)C(=O)N[C@H]1N=C(c2ccccc2)c2cccc(OC3CC3)c2NC1=O [Example 16, (2R,3S)—N-((3S)-9-(Cyclopropyloxy)-2-oxo-5-phenyl-2,3-dihydro-1H-1,4-benzodiazepin-3-yl)-3-(4,4,4-trifluorobutyl)-2-(3,3,3-trifluoropropyl)succinamide]
IC50 [1]: 3.7 nM | half-life [4]: 108 min

COc1cccc2c1NC(=O)[C@@H](NC(=O)[C@H](CCC(F)(F)F)[C@H](CCC(F)(F)F)C(N)=O)N=C2c1cccc(Cl)c1 [Example 26, (2R,3S)—N-((3S)-5-(3-Chlorophenyl)-9-methoxy-2-oxo-2,3-dihydro-1H-1,4-benzodiazepin-3-yl)-2,3-bis(3,3,3-trifluoropropyl)succinamide]
IC50 [1]: 3.4 nM | half-life [4]: 82 min

Cc1cccc(C2=N[C@H](NC(=O)[C@H](CCC(F)(F)F)[C@H](CCC(F)(F)F)C(N)=O)C(=O)Nc3c(Cl)cccc32)c1 [Example 28, (2R,3S)—N-((3S)-9-Chloro-5-(3-methylphenyl)-2-oxo-2,3-dihydro-1H-1,4-benzodiazepin-3-yl)-2,3-bis(3,3,3-trifluoropropyl)succinamide]
IC50 [1]: 7.2 nM | half-life [4]: 98 min

Cc1cccc2c1NC(=O)[C@@H](NC(=O)[C@H](CCC(F)(F)F)[C@H](CCCC(F)(F)F)C(N)=O)N=C2c1cccc(C(F)(F)F)c1 [Example 18, (2R,3S)—N-((3S)-9-Methyl-2-oxo-5-(3-(trifluoromethyl)phenyl)-2,3-dihydro-1H-1,4-benzodiazepin-3-yl)-3-(4,4,4-trifluorobutyl)-2-(3,3,3-trifluoropropyl)succinamide]
IC50 [1]: 7.7 nM | half-life [4]: > 120 min

NC(=O)[C@@H](CCC(F)(F)F)[C@@H](CCC(F)(F)F)C(=O)N[C@H]1N=C(c2ccccc2)c2cccc(OC3CC3)c2NC1=O [Example 19, (2R,3S)—N-((3S)-9-(Cyclopropyloxy)-2-oxo-5-phenyl-2,3-dihydro-1H-1,4-benzodiazepin-3-yl)-2,3-bis(3,3,3-trifluoropropyl)succinamide]
IC50 [1]: 4 nM | half-life [4]: 108 min

Cc1cccc2c1NC(=O)[C@@H](NC(=O)[C@H](CCC(F)(F)F)[C@H](CCC(F)(F)F)C(N)=O)N=C2c1ccccc1 [Example 23, (2R,3S)—N-((3S)-9-Methyl-2-oxo-5-phenyl-2,3-dihydro-1H-1,4-benzodiazepin-3-yl)-2,3-bis(3,3,3-trifluoropropyl)succinamide]
IC50 [1]: 8.3 nM | half-life [4]: 101 min

Cc1cc(C)cc(C2=N[C@H](NC(=O)[C@H](CCC(F)(F)F)[C@H](CCCC(F)(F)F)C(N)=O)C(=O)Nc3c(Cl)cccc32)c1 [Example 5, (2R,3S)—N-(9-Chloro-5-(3,5-dimethylphenyl)-2-oxo-2,3-dihydro-1H-1,4-benzodiazepin-3-yl)-3-(4,4,4-trifluorobutyl)-2-(3,3,3-trifluoropropyl)succinamide]
IC50 [1]: 4 nM | half-life [4]: 33 min

COc1cccc2c1NC(=O)[C@@H](NC(=O)[C@H](CCC(F)(F)F)[C@H](CCC(F)(F)F)C(N)=O)N=C2c1ccc(C(F)(F)F)cn1 [Example 33, (2R,3S)—N-((3S)-9-Methoxy-2-oxo-5-(5-(trifluoromethyl)-2-pyridinyl)-2,3-dihydro-1H-1,4-benzodiazepin-3-yl)-2,3-bis(3,3,3-trifluoropropyl)succinamide]
IC50 [1]: 7.4 nM | half-life [4]: 82 min

Cc1cccc2c1NC(=O)[C@@H](NC(=O)[C@H](CCC(F)(F)F)[C@H](CCC(F)(F)F)C(N)=O)N=C2c1ccc(F)cc1 [Example 22, (2R,3S)—N-((3S)-5-(4-Fluorophenyl)-9-methyl-2-oxo-2,3-dihydro-1H-1,4-benzodiazepin-3-yl)-2,3-bis(3,3,3-trifluoropropyl)succinamide]
IC50 [1]: 6.3 nM | half-life [4]: > 120 min
